Legend:
[1] = target: T1, second (BD2: amino acids E352-E168) bromodomain of BRD4 (Homo sapiens, UniProt O60885); assay: TR-FRET bromodomain binding assay, BRD4 BD2; settings: TR-FRET assay protocol (A-G, compound concentration range); Ki calculated from IC50, probe Kd and probe concentration; read-out: TR-FRET Binding Ki: BRD4 (BDII_E352-M457)
T1 construct: protocol
Description: (§1) A time-resolved fluorescence resonance energy transfer (TR-FRET) assay was used to determine the affinities of compounds of the Examples listed in Table 1 for each bromodomain of BRD4. His-tagged first (BD1: amino acids K57-E168) and second (BD2: amino acids E352-E168) bromodomains of BRD4 were expressed and purified. An Alexa647-labeled BET-inhibitor was used as the fluorescent probe in the assay.
(§2) Compound dilution series were prepared in DMSO via an approximately 3-fold serial dilution from one of the following:
(§3) or 5-fold serial dilution from one of the following:
(§4) Assay method A: 2.5 mM-800 nM
(§5) For Assay methods A, C, D, and F: Compounds were then diluted 6:100 in assay buffer (20 mM Sodium Phosphate, pH 6.0, 50 mM NaCl, 1 mM Ethylenediaminetetraacetic acid, 0.01% Triton X-100, 1 mM DL-Dithiothreitol) to yield 3× working solutions. […] of this solution were added to the assay plate to reach a final volume of 18 μL.
(§6) TR-FRET data were normalized to the means of 24 no-compound controls (“high”) and 8 controls containing 1 μM un-labeled probe (“low”). Percent inhibition was plotted as a function of compound concentration and the data were fit with the 4 parameter logistic equation to obtain IC50s. Inhibition constants (Ki) were calculated from the IC50s, probe Kd and probe concentration. Typical Z′ values were between 0.65 and 0.75.

[2] = target: T2, first (BD1: amino acids K57-E168) bromodomain of BRD4 (Homo sapiens, UniProt O60885); assay: TR-FRET bromodomain binding assay, BRD4 BD1; settings: TR-FRET assay protocol (A-G, compound concentration range); Ki calculated from IC50, probe Kd and probe concentration; read-out: TR-FRET Binding Ki: BRD4 (BDI_K57-E168)
T2 construct: His-tagged first (BD1: amino acids K57-E168)
Description: as §1, §2, §3, §4, §5, §6

| Compound | Ki [1] [nM] | Ki [2] [nM] |
| --- | --- | --- |
| Cn1nc(-c2ccccc2Oc2ccccc2)c(C2=CCNCC2)cc1=O [Example 82, 2-methyl-6-(2-phenoxyphenyl)-5-(1,2,3,6-tetrahydropyridin-4-yl)pyridazin-3(2H)-one] | 2480 | 4070 |
| CN1CC=C(c2cc(=O)n(C)nc2-c2ccccc2Oc2ccccc2)CC1 [Example 83, 2-methyl-5-(1-methyl-1,2,3,6-tetrahydropyridin-4-yl)-6-(2-phenoxyphenyl)pyridazin-3(2H)-one] | 6830 | 3610 |
| CC(=O)N1CC=C(c2cc(=O)n(C)nc2-c2ccccc2Oc2ccccc2)CC1 [Example 84, 5-(1-acetyl-1,2,3,6-tetrahydropyridin-4-yl)-2-methyl-6-(2-phenoxyphenyl)pyridazin-3(2H)-one] | 1010 | 1020 |
| Cn1nc(-c2ccccc2Oc2ccccc2)c(C2=CCN(S(C)(=O)=O)CC2)cc1=O [Example 85, 2-methyl-5-[1-(methylsulfonyl)-1,2,3,6-tetrahydropyridin-4-yl]-6-(2-phenoxyphenyl)pyridazin-3(2H)-one] | 791 | 1610 |
| Cn1nc(-c2ccccc2Oc2ccccc2)c(C2CCN(C(=O)OC(C)(C)C)CC2)cc1=O [Example 86, tert-butyl 4-[1-methyl-6-oxo-3-(2-phenoxyphenyl)-1,6-dihydropyridazin-4-yl]piperidine-1-carboxylate] | 2740 | > 13000 |
| Cn1nc(-c2ccccc2Oc2ccccc2)c(C2CCNCC2)cc1=O [Example 87, 2-methyl-6-(2-phenoxyphenyl)-5-(piperidin-4-yl)pyridazin-3(2H)-one] | 3090 | 2010 |
| CC(=O)N1CCC(c2cc(=O)n(C)nc2-c2ccccc2Oc2ccccc2)CC1 [Example 89, 5-(1-acetylpiperidin-4-yl)-2-methyl-6-(2-phenoxyphenyl)pyridazin-3(2H)-one] | 3890 | 8100 |
| Cn1nc(-c2ccccc2Oc2ccccc2)c(C2CCN(S(C)(=O)=O)CC2)cc1=O [Example 90, 2-methyl-5-[1-(methylsulfonyl)piperidin-4-yl]-6-(2-phenoxyphenyl)pyridazin-3(2H)-one] | 2330 | 4550 |
| CN(C)C(=O)c1cccc(-c2cc(=O)n(C)nc2-c2ccccc2Oc2ccccc2)c1 [Example 109, N,N-dimethyl-3-[1-methyl-6-oxo-3-(2-phenoxyphenyl)-1,6-dihydropyridazin-4-yl]benzamide] | 1530 | 1260 |
| Cn1nc(-c2ccccc2Oc2ccccc2)c(-c2cnn(Cc3ccccc3)c2)cc1=O [Example 113, 5-(1-benzyl-1H-pyrazol-4-yl)-2-methyl-6-(2-phenoxyphenyl)pyridazin-3(2H)-one] | 317 | 407 |
| Cc1n[nH]c(C)c1-c1cc(=O)n(C)nc1-c1ccccc1Oc1ccccc1 [Example 115, 5-(3,5-dimethyl-1H-pyrazol-4-yl)-2-methyl-6-(2-phenoxyphenyl)pyridazin-3(2H)-one] | 6940 | 11100 |
| Cn1nc(-c2ccccc2Oc2ccccc2)c(-c2cncc3ccccc23)cc1=O [Example 118, 5-(isoquinolin-4-yl)-2-methyl-6-(2-phenoxyphenyl)pyridazin-3(2H)-one] | 17200 | > 13000 |
| CC(=O)Nc1cncc(-c2cc(=O)n(C)nc2-c2ccccc2Oc2ccccc2)c1 [Example 121, N-{5-[1-methyl-6-oxo-3-(2-phenoxyphenyl)-1,6-dihydropyridazin-4-yl]pyridin-3-yl}acetamide] | 2960 | 1120 |
| CNC(=O)c1cncc(-c2cc(=O)n(C)nc2-c2ccccc2Oc2ccccc2)c1 [Example 122, N-methyl-5-[1-methyl-6-oxo-3-(2-phenoxyphenyl)-1,6-dihydropyridazin-4-yl]pyridine-3-carboxamide] | 4520 | 8560 |
| CC(=O)c1cccc(-c2cc(=O)n(C)nc2-c2ccccc2Oc2ccccc2)c1F [Example 124, 5-(3-acetyl-2-fluorophenyl)-2-methyl-6-(2-phenoxyphenyl)pyridazin-3(2H)-one] | 17700 | 8120 |
| COc1ccc(-c2cc(=O)n(C)nc2-c2ccccc2Oc2ccccc2)c(OC)n1 [Example 125, 5-(2,6-dimethoxypyridin-3-yl)-2-methyl-6-(2-phenoxyphenyl)pyridazin-3(2H)-one] | 16000 | > 13000 |

The next lines start with the values.

| Ki [1] [nM] | Ki [2] [nM] | Compound |
| --- | --- | --- |
| 238 | > 238 | Cc1nnc(-c2ccc(-c3cc(=O)n(C)nc3-c3ccccc3Oc3ccccc3)cc2)o1 [Example 91, 2-methyl-5-[4-(5-methyl-1,3,4-oxadiazol-2-yl)phenyl]-6-(2-phenoxyphenyl)pyridazin-3(2H)-one] |
| 3240 | > 13000 | Cn1nc(-c2ccccc2Oc2ccccc2)c(-c2ccc(Cc3ccccc3)cc2)cc1=O [Example 93, 5-(4-benzylphenyl)-2-methyl-6-(2-phenoxyphenyl)pyridazin-3(2H)-one] |
| 154 | 402 | Cn1nc(-c2ccccc2Oc2ccccc2)c(-c2ccc(CC#N)cc2)cc1=O [Example 94, {4-[1-methyl-6-oxo-3-(2-phenoxyphenyl)-1,6-dihydropyridazin-4-yl]phenyl}acetonitrile] |
| 13400 | 8330 | CC(C)Cc1ccc(-c2cc(=O)n(C)nc2-c2ccccc2Oc2ccccc2)cc1 [Example 96, 2-methyl-5-[4-(2-methylpropyl)phenyl]-6-(2-phenoxyphenyl)pyridazin-3(2H)-one] |
| 176 | 561 | CCOC(=O)Cc1ccc(-c2cc(=O)n(C)nc2-c2ccccc2Oc2ccccc2)cc1 [Example 97, ethyl{4-[1-methyl-6-oxo-3-(2-phenoxyphenyl)-1,6-dihydropyridazin-4-yl]phenyl}acetate] |
| 960 | 2600 | COC(=O)c1ccc(-c2cc(=O)n(C)nc2-c2ccccc2Oc2ccccc2)cc1 [Example 102, methyl 4-[1-methyl-6-oxo-3-(2-phenoxyphenyl)-1,6-dihydropyridazin-4-yl]benzoate] |
| 562 | 1600 | Cn1nc(-c2ccccc2Oc2ccccc2)c(-c2ccncc2)cc1=O [Example 104, 2-methyl-6-(2-phenoxyphenyl)-5-(pyridin-4-yl)pyridazin-3(2H)-one] |
| 925 | 176 | CC(=O)Nc1cccc(-c2cc(=O)n(C)nc2-c2ccccc2Oc2ccccc2)c1 [Example 106, N-{3-[1-methyl-6-oxo-3-(2-phenoxyphenyl)-1,6-dihydropyridazin-4-yl]phenyl}acetamide] |
| 2580 | 1760 | CCOc1ccc(-c2cc(=O)n(C)nc2-c2ccccc2Oc2ccccc2)cc1F [Example 107, 5-(4-ethoxy-3-fluorophenyl)-2-methyl-6-(2-phenoxyphenyl)pyridazin-3(2H)-one] |
| 327 | 410 | CN(C)C(=O)c1ccc(-c2cc(=O)n(C)nc2-c2ccccc2Oc2ccccc2)cc1 [Example 108, N,N-dimethyl-4-[1-methyl-6-oxo-3-(2-phenoxyphenyl)-1,6-dihydropyridazin-4-yl]benzamide] |
| 13500 | > 13000 | CC(C)COc1cccc(-c2cc(=O)n(C)nc2-c2ccccc2Oc2ccccc2)c1 [Example 110, 2-methyl-5-[3-(2-methylpropoxy)phenyl]-6-(2-phenoxyphenyl)pyridazin-3(2H)-one] |
| 1970 | 2470 | CC(C)Oc1ccc(-c2cc(=O)n(C)nc2-c2ccccc2Oc2ccccc2)cc1F [Example 111, 5-[3-fluoro-4-(propan-2-yloxy)phenyl]-2-methyl-6-(2-phenoxyphenyl)pyridazin-3(2H)-one] |
| 184 | 328 | Cn1nc(-c2ccccc2Oc2ccccc2)c(-c2ccc(C(=O)NC3CC3)cc2)cc1=O [Example 114, N-cyclopropyl-4-[1-methyl-6-oxo-3-(2-phenoxyphenyl)-1,6-dihydropyridazin-4-yl]benzamide] |
| 553 | 1050 | COc1ccc(-c2cc(=O)n(C)nc2-c2ccccc2Oc2ccccc2)cn1 [Example 116, 5-(6-methoxypyridin-3-yl)-2-methyl-6-(2-phenoxyphenyl)pyridazin-3(2H)-one] |
| 619 | 1490 | CCOc1ccc(-c2cc(=O)n(C)nc2-c2ccccc2Oc2ccccc2)cc1 [Example 117, 5-(4-ethoxyphenyl)-2-methyl-6-(2-phenoxyphenyl)pyridazin-3(2H)-one] |
| 1190 | 611 | Cn1nc(-c2ccccc2Oc2ccccc2)c(-c2cccc(NS(C)(=O)=O)c2)cc1=O [Example 120, N-{3-[1-methyl-6-oxo-3-(2-phenoxyphenyl)-1,6-dihydropyridazin-4-yl]phenyl}methanesulfonamide] |
| 1170 | 7260 | CC(C)Oc1ccc(-c2cc(=O)n(C)nc2-c2ccccc2Oc2ccccc2)cn1 [Example 123, 2-methyl-6-(2-phenoxyphenyl)-5-[6-(propan-2-yloxy)pyridin-3-yl]pyridazin-3(2H)-one] |

Reference: patent US9561231B2 (AbbVie Inc., priority 2012, dated 2017)
